# Values quoted from earlier work in patent publication US6924277B2, “Cyclized benzamide neurokinin antagonists for use in therapy” (AstraZeneca AB, priority 2000, dated 2005).
# Like-named read-outs stand apart in the source and are kept apart here. Peptide text beside a SMILES is read from it.
# How the values were obtained:
# [1] = Elevated plus-maze
# [2] = Forced swim test (depression model); only at 30 mg/kg bid; Vassout et al, Neuropeptides 26/S1: 38, 1994
# [3] = Light-dark box
# Marmoset = Marmoset human intruder; Walsh et al., Psychopharmacology 121: 186-191, 1995
# [4] = Teixeira et al., Eur J Pharmacol 311(1): 7-14, 1996
# [5] = Stratton et al., Eur. J. Pharmacol. 250: R11-12, 1993
# [6] = Walsh et al., Psychopharmacology 121: 186-191, 1995
smiles,measurement,setting,value
Cc1cc(C)cc(C(=O)N2CC[C@H](NCc3ccnc4ccccc34)C[C@H]2Cc2ccccc2)c1 [CGP 49823],Outcome,"[1]; Vassout et al, Neuropeptides 26/S1: 38, 1994",inactive
same,Outcome,"Social interaction test, Vassout et al, Neuropeptides 26/S1: 38, 1994",anxiolytic
same,Outcome,"Social interaction, File, Pharm Bio B 58(3): 747-752, 1997",anxiolytic
same,Outcome,[2],antidepressant
CN(Cc1ccccc1)C(=O)[C@H](Cc1ccc2ccccc2c1)NC(=O)[C@@H]1C[C@@H](O)CN1C(=O)c1cn(C)c2ccccc12 [FK888],Outcome,[1]; [4],anxiolytic
C[C@H](NC(=O)CNC(=O)C1CCCCC1)C(=O)N[C@H](Cc1c[nH]c2ccccc12)C(=O)N[C@@H](Cc1ccccc1)C(=O)N(C)C [GR100679] (HELM PEPTIDE1{[O=C(C1CCCCC1)[*:2]].G.A.[dW].F.[CN(C)[*:1]]}$$$$V2.0),Outcome,[3]; [5],anxiolytic
COC1(C[S@@+]([O-])c2ccccc2)CCN(CCc2c[nH]c3ccc(F)cc23)CC1 [GR159897],Outcome,[3]; [6],anxiolytic
same,Outcome,Marmoset,anxiolytic
CC(=O)NC1(c2ccccc2)CCN(CC[C@H](CN(C)C(=O)c2ccccc2)c2ccc(Cl)c(Cl)c2)CC1 [SR48968],Outcome,[1]; [4],anxiolytic
same,Outcome,[3]; [5],anxiolytic
same,Outcome,[3]; [6],anxiolytic
same,Outcome,Marmoset,anxiolytic
